The numbers were not newly measured in US20230364118A1, “RIBITOL TREATMENT” (priority 2020, published 2023), which cites them from elsewhere.

For the series the following is noted: rabbits; cited from earlier work.

What is called half-life is the time in which the quantity being followed falls by half. Take `O=C[C@H](O)[C@H](O)[C@H](O)CO` [D-ribose]: the half-life was 14 to 24 min.
